Experimental data: the NIST ThermoML archive (doi:10.1021/je700290j)

Legend:
[1] = for surface tension liquid-gas: Ring tensiometer; for mass density / viscosity / speed of sound: 101 kPa, Liquid; for speed of sound: Sing-around technique in a fixed-path interferometer
[2] = xn = mol fraction of the nth substance listed; details: 293.15 K; for surface tension liquid-gas: Ring tensiometer; for speed of sound / mass density / viscosity: 101 kPa, Liquid; for speed of sound: Sing-around technique in a fixed-path interferometer

C1CCNC1 [pyrrolidine]
[1]
Details	mass density [kg/m3]	speed of sound [m/s]	surface tension liquid-gas [mN/m]	viscosity [mPa·s]
293.15 K	863.81	1384.4	30.11	1.551
298.15 K	–	–	29.75	–

C1CCNCC1 [piperidine]
[1]
Details	mass density [kg/m3]	speed of sound [m/s]	surface tension liquid-gas [mN/m]	viscosity [mPa·s]
293.15 K	859.87	1389.4	30.27	0.8207
298.15 K	–	–	29.56	–

C1CCNCC1 [piperidine] + C1CCNC1
[2], x1 = 1
Details	mass density [kg/m3]	speed of sound [m/s]	surface tension liquid-gas [mN/m]	viscosity [mPa·s]
–	859.87	1389.4	30.27	0.8207

C1CCNC1 [pyrrolidine] + C1CCNCC1
[2]
Details	mass density [kg/m3]	speed of sound [m/s]	surface tension liquid-gas [mN/m]	viscosity [mPa·s]
x2 = 0	863.81	1384.4	30.11	1.551
x2 = 0.1043	863.61	1385.4	30.36	1.457
x2 = 0.2304	863.4	1386.3	30.61	1.364
x2 = 0.496	862.79	1388.2	30.56	1.201
x2 = 0.6423	862.19	1390.1	30.51	1.038
x2 = 0.7053	861.89	1390.8	30.47	0.9752
x2 = 0.8273	861.6	1391.5	30.42	0.9124
